Values of other authors as cited in US20090297541A1, “MATURATION OF DENDRITIC CELLS” (priority 2006, published 2009).

Legend:
monocyte-derived DCs = settings: MPLA alone at concentrations up to 100 μg/ml
immature DCs = settings: MPLA at low doses (under 50 μg/ml)
IFNGR1 chain = settings: high affinity

| Kd (IFNGR1 chain) [nM] | Substance | production of IL-12p70 or IL-10 (monocyte-derived DCs) | impact on DC maturation (monitored by IL-12 production) (immature DCs) | migration and functional maturation of DCs in vivo (murine DCs) |
| --- | --- | --- | --- | --- |
|  | Monophosphoryl lipid A [MPLA] | failed to induce any significant production of IL-12p70 or IL-10 | no impact on DC maturation | induces the migration and functional maturation of murine DCs in vivo |
| ~1 | IFN-gamma: cytokine, homodimer of two noncovalently bound polypeptide subunits; IFNγ receptor agonist |  |  |  |
